From PMC8778187, “A New Oxygen Containing Pyclen-Type Ligand as a Manganese(II) Binder for MRI and ^52Mn PET Applications: Equilibrium, Kinetic, Relaxometric, Structural and Radiochemical Studies” (Molecules, 2022)

Key:
[1] = 1H relaxometry: r1p and r2p relaxivity of Mn(II) complexes; type: physicochemical; settings: for r1p / r2p: Mn(II) complex, pH = 7.4
Protocol: The relaxivity of Mn(II) complexes is one of the most important parameters that directly correlates with its MRI efficacy. Relaxivity is defined as the longitudinal (r1p) and transverse (r2p) water proton relaxation rate enhancement, provided by 1.0 mM concentration of the paramagnetic species. The relaxivity (r1p and r2p) of the Mn(II) complexes were determined using relaxometers operating at 0.49 T and 1.41 T field strength, in a HEPES buffer (I = 0.15 M NaCl) at different temperatures from the slopes of plots 1/T1,2 vs. (Mn(II)) for 4 concentrations of Mn(II) (data shown in Supporting Information Figures S24 and S25), and they are compared in Table 4.
The ^1H longitudinal (T1) and transverse (T2) relaxation times were measured by using Bruker Minispec MQ-20 and MQ-60 NMR analyzers (Bruker corporation, Billerica, MA, USA). The temperature of the sample holder was set at 25.0 or 37 (±0.2) °C, and controlled with a circulating water bath thermostat. The T1 values of the samples were determined by means of the inversion recovery method (180°–τ–90°), averaging 4–6 data points obtained at 12 different τ delay times, while T2 data were collected by using the Carl–Purcell–Meiboom–Gill (CPMG) spin-echo pulse sequence. Relaxivities were determined by published procedures (from the slopes of the plots of 1/T1,2 vs. (Mn(II)) for 4 concentrations of Mn(II)), in samples of 0.3–0.4 mL volume (data shown in Figures S24 and S25, Supplementary Information). The pH were set by either using a 0.05 M 4-(2-hydroxyethyl)-1-piperazine-ethanesulfonic acid (HEPES) buffer (pH = 7.4) or monitored (pH profiles) using a Metrohm 827 pH lab pH meter and a Metrohm 6.0234.100 combined electrode, in the pH range of 1.75–11.8.

[2] = Metal exchange (transmetalation) with Zn(II) followed by T2 relaxometry; type: physicochemical
Text: The kinetic inertness of the complexes considered for in vivo applications is an important parameter. It can be characterized by using various approaches. One of the possibilities is to study the rates of dissociation of the complexes, by following the transmetalation reactions occurring between the complex and the large excess (applied to ensure pseudo-first-order conditions) of a suitable exchanging metal ions (essential metal ions, such as Zn(II) or Cu(II) are often used for this purpose). The rates of dissociation reactions are explored as a function of pH (in a wide pH range) as well as in a wide metal ion concentration range, in order to obtain information about the contribution of various mechanisms (spontaneous, acid-, or metal-assisted dissociation). […] Results obtained for different complexes under the same conditions can be compared, and the order of relative inertness can be accessed rapidly. Finally, in the field of nuclear medicine, the “serum stability” is often determined, which, in fact, reflects dissociation in the blood serum (i.e., the dissociation initiated by the serum components). Upon the dissociation of the complex, the Mn(II) reacts with the serum components (HSA for instance), which results in a considerable relaxivity enhancement caused by the formation of Mn(II) species with a longer rotational correlation time (a remarkable increase in molecular mass). Therefore, ^1H relaxometry is an easily accessible tool for following the transmetalation/transchelation reactions of paramagnetic complexes occurring in blood serum.
Metal exchange reactions occurring with Zn(II) at pH = 6.0: first, we evaluated the rate of the metal exchange reaction occurring with Zn(II) under the conditions proposed by P. Caravan and coworkers, in order to have an idea of how the replacement of the secondary amine group for an etheric oxygen in the rim of the pyclen macrocycle affects the inertness of its corresponding Mn(II) complex. The plot of the 1/T2 values as a function of time for the [Mn(3,9-OPC2A)] and [Mn(3,9-PC2A)] complexes are shown in Figure S26 (Supporting Information). Fitting the measured data for the [Mn(3,9-OPC2A)] by the monoexponential function gives the rate constant kobs = (1.74 ± 0.04) × 10^−5 s^−1.
The inertness of the [Mn(3,9-OPC2A)] complex was studied by various methods. The transmetalation reaction initiated by the Zn(II) ions was monitored by measuring the T2 relaxation times as a function of time at pH = 6.0, set by a 50 mM 2-(N-morpholino)ethanesulfonic acid (MES) buffer in the presence of 25 equivalents of Zn(II) ions at 37 °C. These conditions were recently used by P. Caravan et al., and employed in the present study to obtain data that can be directly compared with that of [Mn(PyC3A)]^– [6].

[3] = pH = 6.0, 25 equivalents of Zn(II), 37 °C

**Q.** Which r1p ([1]; 0.49 T, 25 °C) does the source give for `O=C(O)CN1CCOCCN(CC(=O)O)Cc2cccc(n2)C1` [H23,9-OPC2A, 6-Oxa-3,9,15-triazabicyclo(9.3.1)pentadeca-1(15),11,13-triene-3,9-diacetic acid] here?
**A.** The r1p was 3.13(2) mM^−1s^−1.

**Q.** And the r2p ([1]; 0.49 T, 25 °C)?
**A.** Its r2p is 5.15(3) mM^−1s^−1.

**Q.** What about the r1p ([1]; 0.49 T, 37 °C) of the same compound?
**A.** Its r1p is 2.54(1) mM^−1s^−1.

**Q.** What about the r2p ([1]; 0.49 T, 37 °C) of the same compound?
**A.** The r2p was 4.17(4) mM^−1s^−1.

**Q.** And the r1p ([1]; 1.41 T, 25 °C)?
**A.** The r1p was 2.72(2) mM^−1s^−1.

**Q.** And the r2p ([1]; 1.41 T, 25 °C)?
**A.** Its r2p is 9.90(5) mM^−1s^−1.

**Q.** And the r1p ([1]; 1.41 T, 37 °C)?
**A.** Its r1p is 2.06(1) mM^−1s^−1.

**Q.** And the r2p ([1]; 1.41 T, 37 °C)?
**A.** Its r2p is 7.37(3) mM^−1s^−1.

**Q.** Which “r1p in pure aqueous solution” value ([1]; 1.41 T, 25 °C) does the source give for `O=C([O-])CN1CCOCCN(CC(=O)[O-])Cc2cccc(n2)C1.[Mn+2]` [[Mn(3,9-OPC2A)]] here?
**A.** Its value is 2.70 mM⁻¹ s⁻¹.

**Q.** What about the “r1p near pH = 1.8” value ([1]; 1.41 T, 25 °C, complex protonated and dissociated at low pH) of the same compound?
**A.** The value was 6.51 mM^−1s^−1.

**Q.** What about the kobs ([2]; pH = 6.0 (50 mM MES), 25 equivalents of Zn(II), 37 °C) of the same compound?
**A.** The kobs was “(1.74 ± 0.04) × 10^−5 s^−1”.

**Q.** And the “kobs lower than that of [Mn(PyC3A)]” value [2, 3]?
**A.** The value was about 40 times.

**Q.** What about the “kobs smaller than that of [Mn(3,9-PC2A)]” value [2, 3] of the same compound?
**A.** Its value is “circa 20 times”.

**Q.** What about the “half-life of dissociation at pH = 7.4” value ([2]; pH = 7.4, large Zn(II) excess, from the rate constant) of the same compound?
**A.** Its value is 40.0 h.
